Test results published in patent US20140041064A1, “COMPOSITIONS AND METHODS FOR I[…] FACTORS AND ANTI-FUNGAL AGENTS” (WORCESTER POLYTECHNIC INSTITUTE, priority 2011, published 2014).

Key:
[1] = system: C. albicans; settings: hydrogen peroxide at a final concentration of 2 mM; 20° C., 30° C. and 37° C.
Description: In vitro, Cap1 regulates the response to oxidative stress, which is a key component of the innate immune response to fungi (Alarco et al., J. Bacteriol. 181:700-708.3, 1999); Enjalbert et al., Mol. Biol. Cell. 17:1018-1032, 2006; Wang et al., Free Radic. Biol. Med. 40:1201-1209, 2006; Zhang et al., Mol. Microbiol. 36:618-629, 2000) and is induced in the presence of neutrophils (Fradin et al., Mol. Microbiol. 56:397-415, 2005). To correlate these studies performed at 30° C. and 37° C., respectively, with our in vivo infection performed at 20° C., we compared the ROS sensitivity profiles of cap1Δ/Δ, CAP1-complemented and the cognate wild type strain at 20° C., 30° C. and 37° C.

[2] = system: Macrophage cell line RAW 264.7; settings: 0.05 μM DPI; RAW 264.7 macrophages co-cultured overnight with wild type, cap1Δ/Δ and CAP1-complemented C. albicans (1:15)
Description: Macrophage cell line RAW 264.7 (ATCC) was used in the assay. The cell line was maintained in DMEM supplemented with 10% fetal bovine serum (FBS). […] Briefly, macrophages on reaching 80-90% confluence were scraped and brought up in DMEM supplemented with 10% FBS and 100 U/ml penicillin and 100 μg/ml streptomycin. 2×10^6 macrophage cells were plated in a 35 mm^2 plate and allowed to adhere for 5 hours. Candida strains were grown overnight at 37° C., diluted 1:10, and allowed to grow for another 5 hours. Candida cells were then washed with supplemented DMEM and were added to the plates containing macrophages in a ratio of 1:15 macrophage and to a final volume of 2 ml. Yeast strain was also grown in parallel without macrophages to calculate % survival. The plates were incubated overnight at 37° C. and 5% CO2. Cells were then brought up to 24 mls in a tube using 0.05% Triton X-100 (v/v) in water to osmotically lyse the macrophage cells. Dilutions were prepared and plated on a YPD plate and grown overnight at 37° C. Colony forming units (CFU) were counted and percentage survival was calculated by taking the ratio of CFU from co culture of Candida and macrophage to the CFU obtained for Candida alone.
Experiments involving diphenyleneiodium chloride (DPI) were performed as mentioned above but with the addition of 0.05 μM DPI from a 31.8 mM stock solution in DMSO. […]

Structure (SMILES) | growth of CAP1-complemented strain [1] | growth of reconstructed cap1Δ mutant [1] | CFUs of C. albicans recovered from macrophages [2]
OO [hydrogen peroxide] | same growth as the wild type | failed to grow | –
c1ccc2c(c1)[I+]c1ccccc1-2 [DPI, Diphenyleneiodonium chloride] | – | – | no difference in CFUs recovered from macrophages between the three strains
